# Tested on: immature maize embryos (variety: A188)
# Experiment: Effect of auxin in coculture medium on regeneration and GUS gene expression in whole plants regenerated without selection from Agrobacterium-inoculated immature maize embryos
# Type: cell-based
# Details: for Number of immature embryos found to regenerate into whole plants on LSZ medium / Number of immature embryos with at least one leaf piece showing GUS gene expression / Number of immature embryos whose leaf pieces were all GUS-negative: auxin 6.8 μM in coculture medium, 24 immature embryos per auxin; for Number of immature embryos found to regenerate into whole plants on LSZ medium: Agrobacterium LBA4404 (pSB124); for Percentage of regenerated plants showing expression of the transgene (in words) / Efficiency of regeneration into whole plants (in words): comparison of auxins in coculture medium
# Experimental: Maize (variety: A188) immature embryos (1.0 to 1.5 mm in size) at 7 to 14 days after pollination were aseptically collected and washed once with LS-inf liquid medium, followed by pretreatment (thermal treatment at 46° C. for 3 minutes) to increase gene transfer efficiency for transformation enhancement. In LS-inf liquid medium containing 100 μM acetosyringone, Agrobacterium strain LBA4404 (pSB124) (Komari et al., 1996) was suspended to prepare an inoculum.
# The thermally-treated immature embryos were mixed with the inoculum, vortexed for 30 seconds, and then allowed to stand for 5 minutes at room temperature. The Agrobacterium-inoculated immature embryos (24 in total) were placed, with their scutella facing up, onto a coculture medium containing dicamba (3,6-dichloro-o-anisic acid) or picloram (4-amino-3,5,6-trichloropicolinic acid) at a concentration of 6.8 μM in LS-AS medium (Ishida et al. 1996; solidified with 8 g/l agarose) which had been prepared to exclude 2,4-D (2,4-dichlorophenoxyacetic acid) and contain 5 μM AgNO3 and 5 μM CuSO4.
# On the other hand, LS-AS medium containing 5 μM AgNO3 and 5 μM CuSO4 was supplemented with 1.5 mg/l (6.8 μM) 2,4-D as an auxin member and also used for testing, 24 immature embryos were placed onto this medium.
# The immature embryos cultured in the dark at 25° C. for 7 days were placed onto LSZ medium (Ishida et ai., 1996) containing 10 μM CuSO4, and then cultured in the light at 25° C. for about 2 weeks. Leaves of the regenerated whole plants were partially excised and immersed in 0.1 M phosphate buffer (pH 6.8) containing 0.1% Triton X-100 and then allowed to stand at 37° C. for 1 hour. The phosphate buffer was removed and replaced by another phosphate buffer containing 1.0 mM 5-bromo-4-chloro-3-indolyl-β-D-glucuronic acid (X-gluc) and 20% methanol. After treatment at 37° C. for 24 hours, GUS gene expression was analyzed.
Structure (SMILES),Number of immature embryos found to regenerate into whole plants on LSZ medium (no selection),Number of immature embryos with at least one leaf piece showing GUS gene expression (no selection),"Number of immature embryos that did not regenerate into plants on LSZ medium (auxin 1.5 mg/l (6.8 μM) in coculture medium, 24 immature embryos, no selection)",Percentage of regenerated plants showing expression of the transgene (in words),Number of immature embryos whose leaf pieces were all GUS-negative (no selection),Efficiency of regeneration into whole plants (in words)
"O=C(O)COc1ccc(Cl)cc1Cl [2,4-D, 2,4-dichlorophenoxyacetic acid]",21,4,3,slightly lower,–,–
"COc1c(Cl)ccc(Cl)c1C(=O)O [dicamba, 3,6-dichloro-o-anisic acid]",24,11,–,increased percentage,13,higher efficiency
"Nc1c(Cl)c(Cl)nc(C(=O)O)c1Cl [picloram, 4-amino-3,5,6-trichloropicolinic acid]",All of the immature embryos,9,–,increased percentage,15,higher efficiency

# From patent publication US20130125265A1, “AGROBACTERIUM-MEDIATED METHOD FOR PRODUCING TRANSFORMED PLANT” (JAPAN TOBACCO INC., priority 2008, published 2013)
